Test results: PubChem BioAssay AID1919008 (Molecular Pharmacology Branch, DTP, NCI, 2023)

System: DMS-114 complex spheroids with HUVEC/MSC, growth % test/control
Assay: Anticancer human tumor DMS-114 cell line growth inhibition [AhR];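 also: spheroids exposed to agents for 7 days before readout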;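 as to viability, T/C: 100% = DMSO vehicle control wells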
Conditions: for IC50: curve of first compound; for viability, T/C: stronger effect = lower value; active = viability on the fitted dose curve at most 10% of control; inactive = the rest
Excerpt: Multicellular complex tumor spheroid response to aryl hydrocarbon receptor antagonists in combination with a variety of drugs and investigational agents in selected tumor cell lines
The current study was undertaken to assess response to aryl hydrocarbon receptor antagonists in combination with standard-of-care drugs and investigational agents in solid tumor complex spheroid models. Complex spheroids include a stromal component modeled by human endothelial cells (HUVEC) and fibroblasts modeled by human mesenchymal stem cells (MSCs). The concentration ranges selected for each drug and investigational agent were based upon clinically achievable concentrations if the clinical Cmax of the agent was known.
Compounds. The drugs and investigational agents: BAY 2416964 (NSC825713), GNF351 (NSC835774), CH-223191 (NSC835775), CPI-455 (NSC825282), aza-TdCyd (NSC777586), decitabine (NSC127716), belinostat (NSC758774), entinostat (NSC756642), pevonedistat (NSC761192), tazemetostat (NSC777109), talazoparib (NSC765396), olaparib (NSC753686), selinexor (NSC780203), nedisertib (M3814, NSC802822), bortezomib (NSC756655), venetoclax (NSC766270), doxorubicin (NSC123127), elimusertib (BAY189344, NSC800525), ceralasertib (AZD6738, NSC777638), TAK-243 (NSC785004), alisertib (NSC759677), etoposide (NSC141540), topotecan (NSC609699), eribulin (NSC707389), gemcitabine (NSC613327), carboplatin (NSC241240), cisplatin (NSC119875), and SN-38 (NSC673596) were obtained from the National Cancer Institute (NCI) Developmental Therapeutics Program Chemical Repository (32). The FDA-approved anticancer drug set is available from the Developmental Therapeutics Program at https://dtp.cancer.gov/organization/dscb/obtaining/available plates.htm. […] The stock solutions were prepared in dimethyl sulfoxide (DMSO, Sigma-Aldrich, St. Louis, MO, cat. D2650), except for the platinum compounds which were prepared in saline (Quality Biological, Gaithersburg, MD, cat. 114-055-101), at 800-fold the tested concentration and stored at -70 degrees C prior to their use. All drugs and investigational agents were tested over a range starting from a high concentration at or near the clinical Cmax and decreasing in half-log increments. If the clinical Cmax for an agent had not been determined, the highest concentration tested was 10 microM (Table 1).
Cell Culture. All cells were maintained in an incubator at 37 degrees C and 5% CO2 with 95% humidity. The PDC lines were cultured according to standard operating procedures established by the NCI PDMR (https://pdmr.cancer.gov). Briefly, all PDCs were thawed and cultured in Matrigel-coated flasks prepared with a working solution of 1X Ham's F-12 nutrient mix, without supplementation (Invitrogen, Waltham, MA, cat. 11765054), 100 U/mL penicillin-streptomycin (Invitrogen, cat. 15140122), and 2.5% Matrigel (Corning Inc., Corning, NY, cat. 354248) for the first three passages. All PDCs were cultured in complete DMEM/F-12 media containing advanced DMEM/F-12 (Invitrogen, cat. 12634028), 4.9% defined fetal bovine serum, heat inactivated (HyClone Laboratories Inc., Logan, UT, cat. SH30070.03HI), 389 ng/mL hydrocortisone (Sigma-Aldrich, cat. H4001), 9.7 ng/mL human EGF recombinant protein (Invitrogen, cat. PHG0313), 23.4 microg/mL adenine (Sigma-Aldrich, cat. A2786), 97.3 U/mL penicillin-streptomycin (Invitrogen, cat. 15140122), 1.9 mM L-glutamine (Invitrogen, cat. 25030081), and 9.7 microM Y-27632 dihydrochloride (Tocris Bioscience, Bristol, United Kingdom, cat. 1254). The PDCs were cultured in complete DMEM/F12 media without 10 microM Y-27632 dihydrochloride for at least two passages prior to the screen. The established cell lines NCI-H1341 and […] were cultured in DMEM/F-12, HEPES (Invitrogen, cat. 11330032), 5% defined fetal bovine serum (HyClone Laboratories Inc., cat. SH30070.03), ITS premix universal culture supplement [insulin (5 microg/mL), transferrin (5 microg/mL), and selenious acid (5 ng/mL)] […]

[1] = second compound 0.1 µM, first compound 0.0316 µM
[2] = second compound 0.1 µM, first compound 0.1 µM
[3] = second compound 0.1 µM, first compound 0.316 µM
[4] = second compound 0.1 µM, first compound 1 µM
[5] = second compound 0.1 µM, first compound 3.16 µM
[6] = second compound 0.1 µM, first compound 10 µM
[7] = second compound 0.316 µM, first compound 0.0316 µM
[8] = second compound 0.316 µM, first compound 0.1 µM
[9] = second compound 0.316 µM, first compound 0.316 µM
[10] = second compound 0.316 µM, first compound 1 µM
[11] = second compound 0.316 µM, first compound 3.16 µM
[12] = second compound 0.316 µM, first compound 10 µM
[13] = second compound 1 µM, first compound 0.0316 µM
[14] = second compound 1 µM, first compound 0.1 µM
[15] = second compound 1 µM, first compound 0.316 µM
[16] = second compound 1 µM, first compound 1 µM
[17] = second compound 1 µM, first compound 3.16 µM
[18] = second compound 1 µM, first compound 10 µM
[19] = second compound 3.16 µM, first compound 0.0316 µM
[20] = second compound 3.16 µM, first compound 0.1 µM
[21] = second compound 3.16 µM, first compound 0.316 µM
[22] = second compound 3.16 µM, first compound 1 µM
[23] = second compound 3.16 µM, first compound 3.16 µM
[24] = second compound 3.16 µM, first compound 10 µM
[25] = second compound 10 µM, first compound 0.0316 µM
[26] = second compound 10 µM, first compound 0.1 µM
[27] = second compound 10 µM, first compound 0.316 µM
[28] = second compound 10 µM, first compound 1 µM
[29] = second compound 10 µM, first compound 3.16 µM
[30] = second compound 10 µM, first compound 10 µM

CC(C)CC(NC(=O)C(Cc1ccccc1)NC(=O)c1cnccn1)B(O)O (stereo not given) + CC(CO)NC(=O)c1cc(-c2ccc(Cl)cc2)nn(-c2cnn(C)c2)c1=O
active: viability, T/C (second compound 0.1 µM, first compound 0.00949 µM) 0.72% | viability, T/C (second compound 0.1 µM, first compound 0.03 µM) 0.35% | viability, T/C (second compound 0.1 µM, first compound 0.0949 µM) 0.11% | viability, T/C (second compound 0.1 µM, first compound 0.3 µM) 0.29% | viability, T/C (second compound 0.316 µM, first compound 0.00949 µM) 1.94% | viability, T/C (second compound 0.316 µM, first compound 0.03 µM) 0.05% | viability, T/C (second compound 0.316 µM, first compound 0.0949 µM) 0.3% | viability, T/C (second compound 0.316 µM, first compound 0.3 µM) 0.42% | viability, T/C (second compound 1 µM, first compound 0.00949 µM) 1.26% | viability, T/C (second compound 1 µM, first compound 0.03 µM) 0.32% | viability, T/C (second compound 1 µM, first compound 0.0949 µM) 0.11% | viability, T/C (second compound 1 µM, first compound 0.3 µM) 0.25% | viability, T/C (second compound 3.16 µM, first compound 0.00949 µM) 0.8% | viability, T/C (second compound 3.16 µM, first compound 0.03 µM) 0.07% | viability, T/C (second compound 3.16 µM, first compound 0.0949 µM) 0.76% | viability, T/C (second compound 3.16 µM, first compound 0.3 µM) 0.17% | viability, T/C (second compound 10 µM, first compound 0.00949 µM) 1.52% | viability, T/C (second compound 10 µM, first compound 0.03 µM) 0.2% | viability, T/C (second compound 10 µM, first compound 0.0949 µM) 0.15% | viability, T/C (second compound 10 µM, first compound 0.3 µM) 0.26%
inactive: viability, T/C (second compound 0.1 µM, first compound 0.000949 µM) 100% | viability, T/C (second compound 0.1 µM, first compound 0.003 µM) 59.4% | viability, T/C (second compound 0.316 µM, first compound 0.000949 µM) 95.5% | viability, T/C (second compound 0.316 µM, first compound 0.003 µM) 66.8% | viability, T/C (second compound 1 µM, first compound 0.000949 µM) 113% | viability, T/C (second compound 1 µM, first compound 0.003 µM) 54.8% | viability, T/C (second compound 3.16 µM, first compound 0.000949 µM) 85.7% | viability, T/C (second compound 3.16 µM, first compound 0.003 µM) 54.4% | viability, T/C (second compound 10 µM, first compound 0.000949 µM) 99% | viability, T/C (second compound 10 µM, first compound 0.003 µM) 72.8%
4.34 nM: IC50 (second compound 10 µM)
4.04 nM: IC50 (second compound 0.316 µM)
3.33 nM: IC50 (second compound 1 µM)
3.61 nM: IC50 (second compound 0.1 µM)
3.29 nM: IC50 (second compound 3.16 µM)

Nc1ccccc1NC(=O)c1ccc(CNC(=O)OCc2cccnc2)cc1 + CC(CO)NC(=O)c1cc(-c2ccc(Cl)cc2)nn(-c2cnn(C)c2)c1=O
726 nM: IC50 (second compound 1 µM)
749 nM: IC50 (second compound 0.1 µM)
650 nM: IC50 (second compound 3.16 µM)
813 nM: IC50 (second compound 10 µM)
782 nM: IC50 (second compound 0.316 µM)
inactive: viability, T/C [1] 87.3% | viability, T/C [2] 85.8% | viability, T/C [3] 68.2% | viability, T/C [4] 43.6% | viability, T/C [5] 23.1% | viability, T/C [6] 13.4% | viability, T/C [7] 87% | viability, T/C [8] 89.7% | viability, T/C [9] 76.4% | viability, T/C [10] 42.3% | viability, T/C [11] 20.6% | viability, T/C [12] 13.5% | viability, T/C [13] 91.2% | viability, T/C [14] 87.6% | viability, T/C [15] 73.4% | viability, T/C [16] 39.8% | viability, T/C [17] 24.6% | viability, T/C [18] 14.8% | viability, T/C [19] 92.8% | viability, T/C [20] 75.4% | viability, T/C [21] 68.5% | viability, T/C [22] 40.1% | viability, T/C [23] 23.2% | viability, T/C [24] 14.8% | viability, T/C [25] 90% | viability, T/C [26] 87.7% | viability, T/C [27] 69.2% | viability, T/C [28] 45.8% | viability, T/C [29] 24.9% | viability, T/C [30] 14.4%

O=C(C=Cc1cccc(S(=O)(=O)Nc2ccccc2)c1)NO + CC(CO)NC(=O)c1cc(-c2ccc(Cl)cc2)nn(-c2cnn(C)c2)c1=O
459 nM: IC50 (second compound 1 µM)
482 nM: IC50 (second compound 10 µM)
381 nM: IC50 (second compound 0.316 µM)
543 nM: IC50 (second compound 3.16 µM)
406 nM: IC50 (second compound 0.1 µM)
inactive: viability, T/C [1] 75.9% | viability, T/C [2] 77.6% | viability, T/C [3] 55.1% | viability, T/C [4] 27.2% | viability, T/C [5] 13.3% | viability, T/C [6] 11.9% | viability, T/C [7] 77.6% | viability, T/C [8] 78.3% | viability, T/C [9] 53.2% | viability, T/C [10] 26.2% | viability, T/C [11] 11.3% | viability, T/C [12] 12.4% | viability, T/C [13] 84.6% | viability, T/C [14] 81.2% | viability, T/C [15] 61.1% | viability, T/C [16] 26.9% | viability, T/C [17] 11.1% | viability, T/C [18] 13.5% | viability, T/C [19] 82% | viability, T/C [20] 76.9% | viability, T/C [21] 68.1% | viability, T/C [22] 29.9% | viability, T/C [23] 12.4% | viability, T/C [24] 12.3% | viability, T/C [25] 90.6% | viability, T/C [26] 68.2% | viability, T/C [27] 64.6% | viability, T/C [28] 35% | viability, T/C [29] 13.8% | viability, T/C [30] 14.5%
